Counter-ions that a name gives are not always drawn.
Experiments:
Type in all cases: in vivo
[1] = tested on: high-fat diet loaded mice with STZ-induced diabetes mellitus; test: Combination treatment of compound A and glibenclamide in diabetic mice; conditions: high-fat diet STZ diabetic ICR mice, non-fasting; single oral dose compound A 1 mg/kg, glibenclamide 10 mg/kg, alone or combined; up to 8 hours; mean ± standard error
Text: After 3 weeks a high-fat diet (D12492 of Research Diets, Inc.) feeding, ICR mice (CHARLES RIVER LABORATORIES JAPAN, INC.) were intraperitoneally administered with streptozocin (SIGMA-ALDRICH JAPAN K.K.; hereinafter abbreviated as STZ) to induce diabetes. […] SIGMA-ALDRICH JAPAN K.K.), either alone or in combination. Blood was taken from the tail vein of each mouse at specified time intervals and centrifuged to collect plasma. […] Wako Pure Chemical Industries, Ltd.)

Zucker fatty rats [2] = test: Combination treatment of compound A and miglitol in diabetic rats (soluble starch loading); conditions: fasted Zucker fatty rats; single oral dose compound A 0.5 mg/kg, miglitol 3 mg/kg, alone or combined; soluble starch 2 g/kg one minute later; up to 120 minutes; mean ± standard error
Description: Six male Zucker fatty rats (9-week old) were fasted and orally administered with single doses of compound A (0.5 mg/kg) and an α-glucosidase inhibitor, miglitol (3 mg/kg), either alone or in combination. One minute after the administration, the rats were orally administered with soluble starch solutions (2 g/kg); blood was taken from the tail vein of each rat at specified time intervals and centrifuged to collect plasma. Plasma glucose levels were measured by mutarotase-GOD method with a glucose assay kit (Glucose C2 Test Wako; Wako Pure Chemical Industries, Ltd.)

db/db mice [3] = test: Chronic combination treatment of compound A and pioglitazone in diabetic mice; conditions: compound A 3 mg/kg, pioglitazone 10 mg/kg, once daily oral, alone or combined, 27 days, mean ± standard error; for Change in GHb (%): after minus before; for Change in plasma IRI level: non-fasting
db/db mice [4] = test: Chronic combination treatment of compound A and metformin hydrochloride in diabetic mice; conditions: mean ± standard error; for Change in GHb (%) / Change in plasma IRI level: 27 days; for Fasting plasma glucose level: after 27 days, fasted 16 hours; for Change in plasma IRI level: non-fasting
[5] = tested on: high-fat diet loaded mice with STZ-induced diabetes mellitus; test: Combination treatment of compound A and glipizide in diabetic mice; conditions: high-fat diet STZ diabetic ICR mice, non-fasting; single oral dose compound A 1 mg/kg, glipizide 10 mg/kg, alone or combined; up to 8 hours; mean ± standard error
Description: After 3 weeks a high-fat diet (D12492 of Research Diets, Inc.) feeding, ICR mice (CHARLES RIVER LABORATORIES JAPAN, INC.) were intraperitoneally administered streptozocin (SIGMA-ALDRICH JAPAN K.K.; hereinafter abbreviated as STZ) to induce diabetes. […] SIGMA-ALDRICH JAPAN K.K.), either alone or in combination. Blood was taken from the tail vein of each mouse at specified time intervals and plasma glucose levels were measured by GOD colorimetry with a self-testing glucose measuring instrument (Medisafe Mini GR-102; TERUMO CORPORATION, Japan).

KKAy mice [6] = test: Combination treatment of compound A and glimepiride in diabetic mice; conditions: non-fasting, single oral dose compound A 10 mg/kg, glimepiride 0.5 mg/kg, alone or combined, up to 3 hours, mean ± standard error
Description: (§1) CLEA Japan, Inc.) and 10 female C57BL mice/group (normal mice; 4-week old; CLEA Japan, Inc.) were orally administered with single doses of compound A (10 mg/kg) and an insulin secretagogue, glimepiride (0.5 mg/kg; SIGMA-ALDRICH JAPAN K.K.), either alone or in combination. Blood was taken from the tail vein of each mouse at specified time intervals and plasma glucose levels were measured by the GDH electrode method with a self-testing glucose measuring instrument (Glutest Neo Super; […] CO., LTD.)

C57BL mice = test: Combination treatment of compound A and glimepiride in normal mice; conditions: normoglycemic C57BL mice, non-fasting; single oral dose compound A 10 mg/kg, glimepiride 0.5 mg/kg, alone or combined; up to 3 hours; mean ± standard error
Description: as §1

KKAy mice [7] = test: Chronic combination treatment of compound A and glimepiride in diabetic mice; conditions: non-fasting, compound A 0.03% mixed diet, glimepiride 0.5 mg/kg once daily, alone or combined, one hour after drug administration, mean ± standard error
Description: Seven or eight female KKAy mice/group (4-week old; CLEA JAPAN, Inc.) were orally administered with repeated doses of compound A (0.03% mixed diet; ad libitum) and an insulin secretagogue, glimepiride (0.5 mg/kg, once daily; SIGMA-ALDRICH JAPAN K.K.), either alone or in combination, for 8 weeks. […] Plasma glucose levels were measured by the GDH electrode method with a self-testing glucose measuring instrument (Glutest Neo Super; […]

[8] = tested on: rats with STZ-induced diabetes mellitus; test: Combination treatment of compound A and insulin in diabetic rats; conditions: STZ diabetic SD rats, non-fasting; single oral dose compound A 1 mg/kg, subcutaneous slow-release insulin implant (one pellet), alone or combined; up to 8 hours; mean ± standard error
Text: SD rats (7-week old; CHARLES RIVER LABORATORIES JAPAN, INC.) were intraperitoneally administered with streptozocin (SIGMA-ALDRICH JAPAN K.K.; hereinafter abbreviated as STZ) to induce diabetes. The rats with STZ-induced diabetes mellitus (8-week old) underwent subcutaneous implant of a slow-release insulin (one pellet of […] Canada, Inc.) or sham operation. […] Blood was taken from the tail vein of each rat at specified time intervals and centrifuged to collect plasma. […] Wako Pure Chemical Industries, Ltd.)

Zucker fatty rats [9] = test: Combination treatment of compound A and sitagliptin in diabetic rats (oral glucose loading); conditions: fasted Zucker fatty rats; single oral dose compound A 1 mg/kg, sitagliptin 0.3 mg/kg, alone or combined; glucose 2 g/kg one hour later; up to 120 minutes; mean ± standard error
Description: Eight male Zucker fatty rats/group (10-week old) were fasted and orally administered with single doses of compound A (1 mg/kg) and a DPP-IV inhibitor, sitagliptin (0.3 mg/kg), either alone or in combination. […] Wako Pure Chemical Industries, Ltd.)

Zucker fatty rats [10] = test: Combination treatment of compound A and vildagliptin in diabetic rats (oral glucose loading); conditions: fasted Zucker fatty rats; single oral dose compound A 1 mg/kg, vildagliptin 3 mg/kg, alone or combined; glucose 2 g/kg one hour later; up to 120 minutes; mean ± standard error
Description: One hour after the administration, the rats were orally administered with glucose solutions (2 g/kg); blood was taken from the tail vein of each rat at specified time intervals and centrifuged to collect plasma. Plasma glucose levels were measured by mutarotase-GOD method with a glucose assay kit (Glucose C2 Test Wako; Wako Pure Chemical Industries, Ltd.)

Zucker fatty rats [11] = test: Combination treatment of compound A and voglibose in diabetic rats (soluble starch loading); conditions: fasted Zucker fatty rats; single oral dose compound A 1 mg/kg, voglibose 0.1 mg/kg, alone or combined; soluble starch 2 g/kg one minute later; up to 120 minutes; mean ± standard error
Description: Six male Zucker fatty rats (10-week old) were fasted and orally administered with single doses of compound A (1 mg/kg) and an α-glucosidase inhibitor, voglibose (0.1 mg/kg), either alone or in combination. […] Wako Pure Chemical Industries, Ltd.)

Zucker fatty rats [12] = test: Combination treatment of compound A and acarbose in diabetic rats (soluble starch loading); conditions: fasted Zucker fatty rats; single oral dose compound A 1 mg/kg, acarbose 1 mg/kg, alone or combined; soluble starch 2 g/kg one minute later; up to 120 minutes; mean ± standard error
Description: Six male Zucker fatty rats (11-week old) were fasted and orally administered with single doses of compound A (1 mg/kg) and an α-glucosidase inhibitor, acarbose (1 mg/kg), either alone or in combination. […] Wako Pure Chemical Industries, Ltd.)

[13] = metformin hydrochloride 100 mg/kg, alone or with compound A 3 mg/kg
[14] = metformin hydrochloride 300 mg/kg, alone or with compound A 3 mg/kg

COc1ccc(Cl)cc1C(=O)NCCc1ccc(S(=O)(=O)NC(=O)NC2CCCCC2)cc1 [Glibenclamide, glibenclamide]
Δ plasma glucose AUC [1]: 140.3 ± 107.2 mg·h/dL

OCCN1C[C@H](O)[C@@H](O)[C@H](O)[C@H]1CO [Miglitol, miglitol]
Δ plasma glucose AUC (Zucker fatty rats [2]): 8909.4 ± 1390.0 mg·min/dL

CCc1ccc(CCOc2ccc(CC3SC(=O)NC3=O)cc2)nc1 (stereo not drawn) [Pioglitazone, pioglitazone]
Change in GHb (%) (db/db mice [3]): 3.04 ± 0.36%
Non-fasting plasma glucose level (db/db mice [3]): 555.2 ± 56.9 mg/dL
Change in plasma IRI level (db/db mice [3]): -43.29 ± 3.83 ng/dL

CCOc1ccc(Cc2cc([C@@H]3S[C@H](CO)[C@@H](O)[C@H](O)[C@H]3O)c(OC)cc2C)cc1 [Compound A, (1S)-1,5-anhydro-1-[5-(4-ethoxybenzyl)-2-methoxy-4-methylphenyl]-1-thio-D-glucitol]
Change in GHb (%) (db/db mice [4]; compound A 3 mg/kg once daily oral, alone, GHb after minus before): 0.14 ± 0.39%
Fasting plasma glucose level (db/db mice [4]; compound A 3 mg/kg once daily oral, alone): 275.0 ± 28.7 mg/dL
Change in plasma IRI level (db/db mice [4]; compound A 3 mg/kg once daily oral, alone, after minus before): -5.01 ± 2.11 ng/mL
Δ plasma glucose AUC [5]: -310.3 ± 157.2 mg·h/dL
Δ plasma glucose AUC (KKAy mice [6]): -83.0 ± 14.6 mg·h/dL
Δ plasma glucose AUC (C57BL mice): -4.2 ± 8.5 mg·h/dL
Plasma glucose level at 4 wk of administration (KKAy mice [7]): 154.8 ± 5.9 mg/dL
Plasma glucose level at 8 wk of administration (KKAy mice [7]): 168.6 ± 2.2 mg/dL
Δ plasma glucose AUC [1]: -130.1 ± 164.9 mg·h/dL
Change in GHb (%) (db/db mice [3]): 3.15 ± 0.16%
Non-fasting plasma glucose level (db/db mice [3]): 607.9 ± 21.6 mg/dL
Change in plasma IRI level (db/db mice [3]): -27.81 ± 4.41 ng/dL
Plasma glucose AUC [8]: 3983.4 ± 194.5 mg·h/dL
Δ plasma glucose AUC (Zucker fatty rats [9]): 11239.9 ± 617.8 mg·min/dL
Δ plasma glucose AUC (Zucker fatty rats [10]): 11690.1 ± 807.9 mg·min/dL
Δ plasma glucose AUC (Zucker fatty rats [11]): 10940.4 ± 952.7 mg·min/dL
Δ plasma glucose AUC (Zucker fatty rats [2]): 11655.9 ± 1021.8 mg·min/dL
Δ plasma glucose AUC (Zucker fatty rats [12]): 9861.6 ± 1076.0 mg·min/dL

C[C@H]1O[C@H](O[C@H]2[C@H](O)[C@@H](O)[C@@H](O[C@H]3[C@H](O)[C@@H](O)C(O)O[C@@H]3CO)O[C@@H]2CO)[C@H](O)[C@@H](O)[C@@H]1N[C@H]1C=C(CO)[C@@H](O)[C@H](O)[C@H]1O (stereo partly drawn) [Acarbose, acarbose]
Δ plasma glucose AUC (Zucker fatty rats [12]): 10192.8 ± 913.6 mg·min/dL

N[C@@H](CC(=O)N1CCn2c(nnc2C(F)(F)F)C1)Cc1cc(F)c(F)cc1F [Sitagliptin, sitagliptin]
Δ plasma glucose AUC (Zucker fatty rats [9]): 13881.4 ± 1292.9 mg·min/dL

CN(C)C(=N)N=C(N)N [Metformin hydrochloride, metformin hydrochloride]
Fasting plasma glucose level (db/db mice [4]; [13]): 378.3 ± 33.4 mg/dL
Change in GHb (%) (db/db mice [4]; metformin hydrochloride 100 mg/kg, alone or with compound A 3 mg/kg, oral): 2.08 ± 0.33%
Fasting plasma glucose level (db/db mice [4]; [14]): 254.0 ± 24.7 mg/dL
Change in GHb (%) (db/db mice [4]; metformin hydrochloride 300 mg/kg, alone or with compound A 3 mg/kg, oral): 1.70 ± 0.23%
Change in plasma IRI level (db/db mice [4]; [13]): -9.81 ± 0.91 ng/mL
Change in plasma IRI level (db/db mice [4]; [14]): -7.36 ± 1.29 ng/mL

CCC1=C(C)CN(C(=O)NCCc2ccc(S(=O)(=O)NC(=O)N[C@H]3CC[C@H](C)CC3)cc2)C1=O [Glimepiride, glimepiride]
Δ plasma glucose AUC (KKAy mice [6]): -118.6 ± 20.2 mg·h/dL
Δ plasma glucose AUC (C57BL mice): -104.0 ± 9.3 mg·h/dL
Plasma glucose level at 4 wk of administration (KKAy mice [7]): 137.6 ± 13.3 mg/dL
Plasma glucose level at 8 wk of administration (KKAy mice [7]): 160.4 ± 8.2 mg/dL

OCC(CO)N[C@H]1C[C@](O)(CO)[C@@H](O)[C@H](O)[C@H]1O [Voglibose, voglibose]
Δ plasma glucose AUC (Zucker fatty rats [11]): 12395.5 ± 543.0 mg·min/dL

Source: patent publication US20120040898A1, “PHARMACEUTICAL COMPOSITIONS” (TAISHO PHARMACEUTICAL CO., LTD, priority 2009, published 2012)
